According to ChEMBL document CHEMBL1201862, “PubChem BioAssay data set” (2004):
“And” between values parts separate entries of the source, which are not always exact repeats. Equal values may be shown once. The source made the active and inactive calls.

Experiments:
[1] = target: Scavenger receptor class B member 1 (Mus musculus, UniProt Q61009); experiment: inhibitors of SR-BI mediated HDL lipid uptake, dose response, ldlA[mSR-BI] cells, fluorescence, cherry pick (AID 493194); assay type: functional, cell-based;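 note: cellular uptake of fluorescent DiI-labeled HDL measured as cell fluorescence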
[2] = target: Melanin-concentrating hormone receptor 1 (Homo sapiens, UniProt Q99705); experiment: Late-stage fluorescence-based counterscreen for antagonists of the G-protein coupled receptor 7 (GPR7): cell-based dose response assay to identify antagonists of the melanin-concentrating hormone receptor 1 (MCHR1). [Related pubchem assays (depositor defined):AID1861, AID1880, AID1952, AID2148, AID2251, AID2257, AID485339]; assay type: functional;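 note: stimulated with 30 nM MCH peptide agonist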
[3] = target: G-protein coupled receptor 35 (Homo sapiens, UniProt Q9HC97); experiment: GPR35 antagonists blocking zaprinast-driven arrestin recruitment, primary screen, imaging, U2OS, beta-arrestin-GFP, zaprinast agonist (AID 2058); assay type: functional;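 note: antagonist potency meaning inhibition of agonist-induced arrestin redistribution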
[4] = target: T1, Replicative DNA helicase DnaB (Mycobacterium tuberculosis, UniProt P9WMR3); experiment: DnaB intein splicing inhibitors, dose response, biochemical, cell-free fluorescence (AID 449749); assay type: functional
T1 sequence (P9WMR3 whole entry): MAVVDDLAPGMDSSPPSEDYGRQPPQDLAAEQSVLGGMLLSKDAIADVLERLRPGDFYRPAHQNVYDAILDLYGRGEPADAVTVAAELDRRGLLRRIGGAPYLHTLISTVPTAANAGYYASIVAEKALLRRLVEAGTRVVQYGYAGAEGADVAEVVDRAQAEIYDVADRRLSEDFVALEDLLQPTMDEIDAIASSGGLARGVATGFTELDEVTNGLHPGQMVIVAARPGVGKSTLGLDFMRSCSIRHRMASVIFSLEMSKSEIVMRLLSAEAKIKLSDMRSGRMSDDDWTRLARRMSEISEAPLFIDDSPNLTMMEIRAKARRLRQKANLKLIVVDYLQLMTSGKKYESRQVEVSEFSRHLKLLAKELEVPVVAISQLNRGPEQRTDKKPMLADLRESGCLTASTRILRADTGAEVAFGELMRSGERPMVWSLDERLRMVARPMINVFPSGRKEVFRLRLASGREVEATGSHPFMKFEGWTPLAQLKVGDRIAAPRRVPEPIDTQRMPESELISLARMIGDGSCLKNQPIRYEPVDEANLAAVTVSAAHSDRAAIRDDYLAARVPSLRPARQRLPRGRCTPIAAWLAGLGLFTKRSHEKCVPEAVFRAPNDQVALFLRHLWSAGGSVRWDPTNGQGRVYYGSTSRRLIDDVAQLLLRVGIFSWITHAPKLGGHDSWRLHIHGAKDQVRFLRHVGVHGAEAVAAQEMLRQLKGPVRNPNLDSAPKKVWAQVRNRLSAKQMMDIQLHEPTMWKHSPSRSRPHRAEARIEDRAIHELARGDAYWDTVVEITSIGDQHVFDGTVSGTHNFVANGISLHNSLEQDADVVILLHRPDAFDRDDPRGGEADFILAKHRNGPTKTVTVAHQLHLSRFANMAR

Protein RecA = target: T2, Protein RecA (Mycobacterium tuberculosis, UniProt P9WHJ3); experiment: Fluorescence Cell-Free Homogeneous Dose Retest to Identify Inhibitors of RecA-Intein Splicing Activity. [Related pubchem assays (depositor defined):AID2097, AID2223, AID489010, AID492950]; assay type: functional
T2 sequence (P9WHJ3 whole entry): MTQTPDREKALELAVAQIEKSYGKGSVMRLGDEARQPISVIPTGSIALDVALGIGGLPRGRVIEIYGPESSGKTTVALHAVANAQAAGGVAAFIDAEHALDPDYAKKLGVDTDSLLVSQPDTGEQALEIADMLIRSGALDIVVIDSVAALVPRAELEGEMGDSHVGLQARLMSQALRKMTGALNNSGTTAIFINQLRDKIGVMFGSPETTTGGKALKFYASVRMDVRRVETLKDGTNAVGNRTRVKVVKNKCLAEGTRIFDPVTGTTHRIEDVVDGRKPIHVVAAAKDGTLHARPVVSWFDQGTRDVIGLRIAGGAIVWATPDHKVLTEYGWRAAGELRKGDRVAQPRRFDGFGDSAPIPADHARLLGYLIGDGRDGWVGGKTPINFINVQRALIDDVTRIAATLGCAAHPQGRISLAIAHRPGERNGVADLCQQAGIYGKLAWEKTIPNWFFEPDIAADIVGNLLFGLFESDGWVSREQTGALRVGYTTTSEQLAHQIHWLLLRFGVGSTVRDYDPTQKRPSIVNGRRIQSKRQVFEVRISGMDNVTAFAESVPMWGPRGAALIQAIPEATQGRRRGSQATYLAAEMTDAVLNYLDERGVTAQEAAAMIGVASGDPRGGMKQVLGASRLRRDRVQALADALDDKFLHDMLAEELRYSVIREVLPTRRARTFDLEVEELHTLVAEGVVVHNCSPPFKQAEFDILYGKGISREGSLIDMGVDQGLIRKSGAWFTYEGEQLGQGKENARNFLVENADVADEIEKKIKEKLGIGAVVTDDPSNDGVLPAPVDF

[5] = target: T3, Tyrosine-protein phosphatase non-receptor type 7 (Homo sapiens, UniProt P35236); assay type: functional
T3 sequence (P35236 whole entry): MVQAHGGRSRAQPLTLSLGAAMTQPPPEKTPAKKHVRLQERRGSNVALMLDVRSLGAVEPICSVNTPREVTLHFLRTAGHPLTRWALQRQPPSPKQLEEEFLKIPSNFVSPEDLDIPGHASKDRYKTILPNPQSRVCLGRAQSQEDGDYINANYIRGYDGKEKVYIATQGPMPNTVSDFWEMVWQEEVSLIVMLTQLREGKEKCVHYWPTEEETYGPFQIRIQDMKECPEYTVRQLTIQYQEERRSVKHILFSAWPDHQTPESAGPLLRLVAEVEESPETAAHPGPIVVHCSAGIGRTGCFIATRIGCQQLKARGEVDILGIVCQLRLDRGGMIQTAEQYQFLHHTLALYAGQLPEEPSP

[6] = target: Glyceraldehyde-3-phosphate dehydrogenase (Homo sapiens, UniProt P04406)
[7] = target: T4, Dual specificity protein phosphatase 6 (Rattus norvegicus, UniProt Q64346)
T4 sequence (Q64346 whole entry): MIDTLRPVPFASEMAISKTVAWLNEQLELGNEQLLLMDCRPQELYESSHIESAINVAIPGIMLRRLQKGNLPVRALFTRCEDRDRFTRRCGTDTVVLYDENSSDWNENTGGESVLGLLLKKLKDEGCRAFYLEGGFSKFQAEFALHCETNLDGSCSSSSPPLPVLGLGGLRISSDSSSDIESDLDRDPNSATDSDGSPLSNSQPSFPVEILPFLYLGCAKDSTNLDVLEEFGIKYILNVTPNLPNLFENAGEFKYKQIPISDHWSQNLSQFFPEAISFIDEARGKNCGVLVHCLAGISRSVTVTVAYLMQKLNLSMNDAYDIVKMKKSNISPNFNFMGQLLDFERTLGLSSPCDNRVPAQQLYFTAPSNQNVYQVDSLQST

[8] = target: T4, Dual specificity protein phosphatase 6; assay type: functional
[9] = target: T5, Delta-type opioid receptor (Homo sapiens, UniProt P41143); experiment: HTS Image-Based Screen for Antagonists of the DOR Receptor. [Related pubchem assays (depositor defined):AID1777, AID1785, AID1786, AID2133]; assay type: functional
Mu-type opioid receptor = Mu-type opioid receptor (Homo sapiens, UniProt P35372); experiment: HTS Image-Based Screen for Agonists of the MOR Receptor. [Related pubchem assays (depositor defined):AID1777, AID1785, AID1786, AID2133]; assay type: functional;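 note: imaging of beta-arrestin GFP recruitment into spots after receptor activation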
[10] = target: T5, Delta-type opioid receptor; experiment: HTS Image-Based Screen for Agonists of the DOR Receptor. [Related pubchem assays (depositor defined):AID1777, AID1786, AID2133]; assay type: functional
Estrogen receptor = Estrogen receptor (Homo sapiens, UniProt P03372);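 note: potency for inhibiting coactivator peptide recruitment to the receptor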
Estrogen receptor beta [11] = target: T6, Estrogen receptor beta (Homo sapiens, UniProt Q92731);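 note: recombinant ER-beta bound to coactivator SRC1 peptide in presence of estradiol agonist; inhibitors block coactivator peptide binding and lower the FRET signal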
Estrogen receptor beta [12] = target: T6, Estrogen receptor beta; experiment: ERβ–SRC-3 coactivator interaction inhibitors, confirmation, orthogonal assay, biochemical, ELISA, streptavidin-HRP readout (AID 1060)
[13] = target: T7, Kappa-type opioid receptor (Homo sapiens, UniProt P41145); assay type: functional
[14] = target: T7, Kappa-type opioid receptor; assay type: functional; remark: listed apart in the source

T6 sequence (Q92731 whole entry): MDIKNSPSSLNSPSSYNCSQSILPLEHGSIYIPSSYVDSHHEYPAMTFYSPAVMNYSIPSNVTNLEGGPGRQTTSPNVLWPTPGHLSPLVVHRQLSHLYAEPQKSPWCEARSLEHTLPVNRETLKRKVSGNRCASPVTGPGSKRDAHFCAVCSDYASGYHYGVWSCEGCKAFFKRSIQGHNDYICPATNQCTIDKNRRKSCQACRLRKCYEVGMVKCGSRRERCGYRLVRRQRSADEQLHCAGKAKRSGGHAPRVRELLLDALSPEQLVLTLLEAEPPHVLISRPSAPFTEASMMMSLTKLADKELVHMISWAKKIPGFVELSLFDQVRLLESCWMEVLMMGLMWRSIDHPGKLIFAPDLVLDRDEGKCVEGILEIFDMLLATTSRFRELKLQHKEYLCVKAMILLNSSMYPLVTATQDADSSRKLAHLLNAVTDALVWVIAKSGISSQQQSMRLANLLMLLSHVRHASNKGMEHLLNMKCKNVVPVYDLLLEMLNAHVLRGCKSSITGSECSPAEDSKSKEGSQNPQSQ
T5 sequence (P41143 whole entry): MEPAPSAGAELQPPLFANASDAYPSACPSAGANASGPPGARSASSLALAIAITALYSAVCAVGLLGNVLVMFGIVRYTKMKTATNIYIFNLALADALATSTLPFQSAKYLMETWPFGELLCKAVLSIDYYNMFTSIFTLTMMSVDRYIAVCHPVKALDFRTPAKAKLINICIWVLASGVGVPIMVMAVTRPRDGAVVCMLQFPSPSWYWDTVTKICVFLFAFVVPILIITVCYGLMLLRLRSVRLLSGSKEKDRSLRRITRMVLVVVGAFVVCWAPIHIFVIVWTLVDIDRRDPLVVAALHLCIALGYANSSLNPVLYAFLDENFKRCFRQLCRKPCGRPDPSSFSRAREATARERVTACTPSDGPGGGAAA
T7 sequence (P41145 whole entry): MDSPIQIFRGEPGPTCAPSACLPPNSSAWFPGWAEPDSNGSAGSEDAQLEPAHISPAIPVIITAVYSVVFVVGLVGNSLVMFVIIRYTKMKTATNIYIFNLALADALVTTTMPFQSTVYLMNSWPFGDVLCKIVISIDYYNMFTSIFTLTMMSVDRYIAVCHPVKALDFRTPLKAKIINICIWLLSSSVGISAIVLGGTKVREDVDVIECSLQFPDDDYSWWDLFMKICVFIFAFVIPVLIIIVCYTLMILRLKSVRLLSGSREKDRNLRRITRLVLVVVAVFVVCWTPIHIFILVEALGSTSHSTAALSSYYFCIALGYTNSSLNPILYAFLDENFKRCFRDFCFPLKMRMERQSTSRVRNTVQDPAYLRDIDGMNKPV
Chain of G-protein coupled receptor 35 (Q9HC97 whole entry): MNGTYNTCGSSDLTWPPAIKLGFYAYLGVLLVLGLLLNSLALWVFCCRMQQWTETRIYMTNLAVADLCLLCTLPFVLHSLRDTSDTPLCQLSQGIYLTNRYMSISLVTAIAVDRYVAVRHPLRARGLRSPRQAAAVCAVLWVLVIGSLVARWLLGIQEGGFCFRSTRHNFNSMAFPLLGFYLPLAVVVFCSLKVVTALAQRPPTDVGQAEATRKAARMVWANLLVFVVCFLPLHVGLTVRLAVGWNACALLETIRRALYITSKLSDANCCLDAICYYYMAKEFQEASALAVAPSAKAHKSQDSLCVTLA
Chain of Scavenger receptor class B member 1 (Q61009 whole entry): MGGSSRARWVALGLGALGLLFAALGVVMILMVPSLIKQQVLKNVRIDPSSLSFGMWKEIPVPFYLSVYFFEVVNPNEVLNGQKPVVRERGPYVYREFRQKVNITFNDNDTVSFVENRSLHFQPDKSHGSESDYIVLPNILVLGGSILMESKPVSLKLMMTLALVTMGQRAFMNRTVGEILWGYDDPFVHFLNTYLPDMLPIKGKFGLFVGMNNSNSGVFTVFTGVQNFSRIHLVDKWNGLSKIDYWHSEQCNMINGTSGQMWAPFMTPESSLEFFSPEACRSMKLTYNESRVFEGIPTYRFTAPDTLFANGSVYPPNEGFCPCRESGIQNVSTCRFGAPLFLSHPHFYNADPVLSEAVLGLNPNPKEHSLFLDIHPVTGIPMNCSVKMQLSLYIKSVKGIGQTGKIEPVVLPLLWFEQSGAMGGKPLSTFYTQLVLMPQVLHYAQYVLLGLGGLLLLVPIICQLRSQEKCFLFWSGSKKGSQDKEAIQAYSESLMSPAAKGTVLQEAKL
Chain of Glyceraldehyde-3-phosphate dehydrogenase (P04406 whole entry): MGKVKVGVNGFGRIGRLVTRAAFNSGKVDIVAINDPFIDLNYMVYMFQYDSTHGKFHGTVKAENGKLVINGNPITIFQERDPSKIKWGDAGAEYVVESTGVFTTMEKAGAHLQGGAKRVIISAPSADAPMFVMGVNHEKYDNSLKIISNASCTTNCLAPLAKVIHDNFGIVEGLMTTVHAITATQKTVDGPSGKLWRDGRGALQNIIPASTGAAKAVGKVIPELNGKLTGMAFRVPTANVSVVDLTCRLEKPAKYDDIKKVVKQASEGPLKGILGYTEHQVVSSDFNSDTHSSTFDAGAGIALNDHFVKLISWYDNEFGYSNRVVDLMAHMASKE
Chain of Estrogen receptor (P03372 whole entry): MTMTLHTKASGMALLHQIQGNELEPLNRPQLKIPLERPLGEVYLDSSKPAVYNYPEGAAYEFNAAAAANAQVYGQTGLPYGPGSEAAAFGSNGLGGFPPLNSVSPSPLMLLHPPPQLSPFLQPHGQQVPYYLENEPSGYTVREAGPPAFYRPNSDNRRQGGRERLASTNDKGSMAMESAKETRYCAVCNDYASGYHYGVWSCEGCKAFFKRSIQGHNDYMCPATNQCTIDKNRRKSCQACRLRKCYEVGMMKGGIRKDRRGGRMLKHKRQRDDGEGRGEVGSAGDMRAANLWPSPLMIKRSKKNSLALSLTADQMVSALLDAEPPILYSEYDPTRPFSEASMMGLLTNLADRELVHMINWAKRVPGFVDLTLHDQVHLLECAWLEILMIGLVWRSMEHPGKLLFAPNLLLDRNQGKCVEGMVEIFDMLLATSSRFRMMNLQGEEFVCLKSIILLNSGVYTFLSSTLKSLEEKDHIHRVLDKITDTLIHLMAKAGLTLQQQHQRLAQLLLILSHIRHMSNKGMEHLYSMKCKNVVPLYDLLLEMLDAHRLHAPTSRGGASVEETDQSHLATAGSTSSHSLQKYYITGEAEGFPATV
Chain of Melanin-concentrating hormone receptor 1 (Q99705 whole entry): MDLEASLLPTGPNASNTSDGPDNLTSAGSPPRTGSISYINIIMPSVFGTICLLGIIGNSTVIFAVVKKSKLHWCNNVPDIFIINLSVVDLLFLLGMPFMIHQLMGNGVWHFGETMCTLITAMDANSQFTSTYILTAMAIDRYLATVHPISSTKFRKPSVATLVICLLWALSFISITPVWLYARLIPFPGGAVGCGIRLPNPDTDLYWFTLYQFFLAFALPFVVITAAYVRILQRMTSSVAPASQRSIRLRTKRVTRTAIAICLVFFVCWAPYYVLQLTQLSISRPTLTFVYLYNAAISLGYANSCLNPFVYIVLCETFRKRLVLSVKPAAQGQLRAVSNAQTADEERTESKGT
Chain of Mu-type opioid receptor (P35372 whole entry): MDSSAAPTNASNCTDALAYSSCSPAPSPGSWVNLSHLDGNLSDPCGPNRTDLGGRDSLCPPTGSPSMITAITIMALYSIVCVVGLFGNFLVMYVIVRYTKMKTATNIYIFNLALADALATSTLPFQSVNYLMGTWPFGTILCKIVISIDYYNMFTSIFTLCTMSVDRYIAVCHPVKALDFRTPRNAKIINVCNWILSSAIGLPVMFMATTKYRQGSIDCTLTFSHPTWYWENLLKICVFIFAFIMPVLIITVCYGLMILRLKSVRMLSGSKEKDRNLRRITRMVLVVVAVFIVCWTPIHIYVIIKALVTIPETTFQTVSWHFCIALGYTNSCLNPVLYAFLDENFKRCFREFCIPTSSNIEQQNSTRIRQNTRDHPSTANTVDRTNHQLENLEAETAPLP

CCOC(=O)N1CCN(C(=O)C2CCN(C(=O)Nc3ccccc3)CC2)CC1
AC50 [1]: 136 µM (active)

COc1ccc(Oc2c(C)cnn(-c3ccc(C(C)C)cc3)c2=O)cc1
IC50 [2]: 9.8 µM (active)

O=C(/C=C/c1ccco1)c1ccc(NC(=O)C23CC4CC(CC(C4)C2)C3)cc1
IC50 [3]: 4.96 µM (active) | AC50 [4]: > 380 µM (inactive) | EC50 (Protein RecA): 55.5 µM (active)

Cc1ccc(CC(=O)Nc2cc(C)on2)cc1
IC50 [5]: > 100 µM (not active) | IC50 [6]: 93.8 µM (active) | IC50 [7]: > 100 µM (inactive) | IC50 [8]: > 100 µM (inactive)

N#Cc1ccc(-c2cccnc2)nc1SCC(=O)Nc1sc2c(c1C#N)CCC2
IC50 [9]: > 32 µM (inactive) | EC50 (Mu-type opioid receptor): > 32 µM (inactive) | EC50 [10]: > 32 µM (inactive) | IC50 (Estrogen receptor): 15 µM (active) | IC50 (Estrogen receptor beta [11]): > 50 µM (not active) | IC50 (Estrogen receptor beta [12]): 3.69 µM (not active) and 149 nM (not active) | EC50 [13]: > 35 µM | EC50 [14]: 16 µM
